{"source": "patent US20240342066A1", "about": "“HIGH POTENCY EMULSIONS” (Vertosa Inc., priority 0001, published 2024)", "system": "skin", "test": "Patch test for skin irritation and allergy", "format": "in vivo, human", "conditions": "positive control", "method": "These three emulsions were first evaluated for skin irritation and allergy studies using a patch test at a third-party skin care evaluation lab. The three pure emulsion formulas were tested at 20 mg/mL concentration on the patch on 55 subjects.\nThe patches were prepared with each of the 3 different emulsion types separately. Each emulsion was prepared at 20 mg/g. The test was focused on the effects of the emulsion without the influence of any other skin care ingredients. The goal was to stress test if pure emulsion can cause any skin irritation. […]\nBelow is the procedure of the patch test: • Step 1: Subjects were requested to bathe or wash as usual before arrival at the facility. • Step 2: Patches containing the test material were then affixed directly to the skin of the intrascapular regions of the back, to the right or left of the midline, and subjects were dismissed with instructions not to wet or expose the test area to direct sunlight. • Step 3: Patches remained in place for 48 hours after the first application. […] Test sites were evaluated by trained laboratory personnel 48 and 96 hours after application. • Step 7: In the event of an adverse reaction, the area of erythema and edema were measured. […]"}
{"smiles": "CCCCCCCCCCCCOS(=O)(=O)[O-].[Na+]", "note": "[2.0% Sodium Lauryl Sulfate Solution, Sodium Lauryl Sulfate]", "values": [{"measurement": "subjects with a Grade 1 reaction", "result": 8, "unit": "subjects"}]}
